How the values were obtained:
human platelets = assay: Tail bleeding assay, human platelet-induced hemostasis in homozygous VWF^1326R>H mice; assay type: in vivo, mouse; settings: for human platelet-induced hemostatic clot / plug formation (words): PLAVIX 50 mg/kg oral day before and 2 h prior, ReoPro 0.25 mg/kg iv bolus then 0.125 μg/kg/min, 5 min after human platelets
Protocol: This assay provides an indirect measure of the ability of platelets and VWF to support hemostasis by interacting with the injured vessel wall. It also indirectly determines the function of multiple receptors and ligands on platelets that are required to form a hemostatic plug. […] It is performed by immersing the severed tip (10 mm) of the animal's tail in isotonic saline at 37° C. and monitoring the length of time required for bleeding to cease. Homozygous mutant mice will be infused with an equal volume of either saline or purified human platelets. Platelet specific antibodies or drugs will be administered as described above and their ability to prolong bleeding time evaluated. All experiments will be stopped at 10 min by cauterizing the tail (51).
Tail cuts were performed 5 min after completion of the infusion of platelets. PLAVIX and ReoPro® were obtained from the research pharmacy at CUMC. For studies involving PLAVIX, animals received a 50 mg/kg oral dose of the drug the day before and 2 h prior to the administration of human platelets.

murine αIIbβ3 = target: T1, murine αIIbβ3 (Mus musculus, UniProt O54890+Q9QUM0); settings: cited from earlier work
T1 sequence (Q9QUM0 32-1033): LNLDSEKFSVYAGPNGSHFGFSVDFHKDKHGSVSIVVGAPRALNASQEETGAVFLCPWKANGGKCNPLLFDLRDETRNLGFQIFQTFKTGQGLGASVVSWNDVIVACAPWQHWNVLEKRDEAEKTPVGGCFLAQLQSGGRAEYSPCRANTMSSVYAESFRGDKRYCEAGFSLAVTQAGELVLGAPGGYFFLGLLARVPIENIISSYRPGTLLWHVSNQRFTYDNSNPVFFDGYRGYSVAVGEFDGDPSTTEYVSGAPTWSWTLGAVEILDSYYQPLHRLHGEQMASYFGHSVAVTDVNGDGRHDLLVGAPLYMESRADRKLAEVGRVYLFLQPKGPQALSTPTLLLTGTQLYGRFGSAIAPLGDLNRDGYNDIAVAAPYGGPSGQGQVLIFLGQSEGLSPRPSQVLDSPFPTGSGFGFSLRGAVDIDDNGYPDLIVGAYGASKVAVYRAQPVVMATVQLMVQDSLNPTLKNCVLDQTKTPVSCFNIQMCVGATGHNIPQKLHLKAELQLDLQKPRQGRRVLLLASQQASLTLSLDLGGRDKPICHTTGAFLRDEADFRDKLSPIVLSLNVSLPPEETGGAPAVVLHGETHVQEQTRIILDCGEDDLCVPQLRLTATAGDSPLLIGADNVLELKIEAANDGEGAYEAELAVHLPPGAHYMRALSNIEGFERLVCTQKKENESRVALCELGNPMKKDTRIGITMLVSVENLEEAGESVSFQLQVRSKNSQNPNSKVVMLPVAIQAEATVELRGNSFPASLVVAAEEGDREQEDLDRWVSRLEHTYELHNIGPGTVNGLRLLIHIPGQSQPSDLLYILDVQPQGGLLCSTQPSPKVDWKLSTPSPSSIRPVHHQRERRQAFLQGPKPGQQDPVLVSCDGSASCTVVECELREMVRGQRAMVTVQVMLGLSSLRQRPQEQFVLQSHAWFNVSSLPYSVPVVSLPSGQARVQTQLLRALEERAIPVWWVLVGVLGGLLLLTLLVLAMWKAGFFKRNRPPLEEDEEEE
T1 sequence (O54890 26-787): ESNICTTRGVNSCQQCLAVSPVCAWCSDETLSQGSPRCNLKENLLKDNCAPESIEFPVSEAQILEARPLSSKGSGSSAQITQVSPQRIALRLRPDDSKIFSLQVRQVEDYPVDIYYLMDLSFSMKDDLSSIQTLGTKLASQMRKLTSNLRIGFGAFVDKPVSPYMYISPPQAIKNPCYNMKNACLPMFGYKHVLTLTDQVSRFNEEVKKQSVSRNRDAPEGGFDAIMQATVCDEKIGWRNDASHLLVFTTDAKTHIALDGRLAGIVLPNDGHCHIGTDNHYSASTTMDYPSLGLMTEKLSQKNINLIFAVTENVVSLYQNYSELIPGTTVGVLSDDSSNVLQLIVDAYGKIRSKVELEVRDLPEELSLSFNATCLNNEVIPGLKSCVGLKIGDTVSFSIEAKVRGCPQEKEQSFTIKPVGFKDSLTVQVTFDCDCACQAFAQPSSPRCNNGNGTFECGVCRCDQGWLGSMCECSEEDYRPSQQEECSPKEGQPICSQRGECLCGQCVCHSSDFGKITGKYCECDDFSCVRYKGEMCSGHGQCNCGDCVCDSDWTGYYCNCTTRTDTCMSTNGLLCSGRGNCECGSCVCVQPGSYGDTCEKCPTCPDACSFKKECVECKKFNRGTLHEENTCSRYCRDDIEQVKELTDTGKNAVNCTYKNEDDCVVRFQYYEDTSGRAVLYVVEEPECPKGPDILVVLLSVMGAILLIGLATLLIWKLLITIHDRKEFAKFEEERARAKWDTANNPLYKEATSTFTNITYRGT

In the case of “abciximab: Fab fragment of the chimeric human-mouse monoclonal antibody 7E3, which blocks the function of αIIbβ3 on human platelets”, the “human platelet-induced hemostatic clot / plug formation (words)” value (human platelets) is reported as “completely disrupted”, the “human platelet-induced hemostatic clot / plug formation (words)” value (human platelets; listed as ReoPro) is reported as “prevented the formation of a hemostatic plug” and the mean bleeding time (human platelets; homozygous VWF^1326R>H mice, given after infusion of human platelets) is reported as 579 s. The “binding / function of murine αIIbβ3” value (murine αIIbβ3) was “does not bind or disrupt the function of murine αIIbβ3”.

Source: patent publication US9686971B2, “Methods for testing anti-thrombotic agents” (The Trustees of Columbia University in the City of New York, priority 2006, dated 2017)
